Assay results from ChEMBL document CHEMBL1151589, “Synthesis and inhibitory activity of optically active 2-benzyl-3-mercaptopropanoic acid against carboxypeptidase A” (Bioorg Med Chem Lett, 1993).

Legend:
[1] = biological target: T1, Mast cell carboxypeptidase A (Homo sapiens, UniProt P15088); assay: Compound was tested for inhibitory activity against carboxypeptidase A; Not active
T1 sequence (P15088 whole entry): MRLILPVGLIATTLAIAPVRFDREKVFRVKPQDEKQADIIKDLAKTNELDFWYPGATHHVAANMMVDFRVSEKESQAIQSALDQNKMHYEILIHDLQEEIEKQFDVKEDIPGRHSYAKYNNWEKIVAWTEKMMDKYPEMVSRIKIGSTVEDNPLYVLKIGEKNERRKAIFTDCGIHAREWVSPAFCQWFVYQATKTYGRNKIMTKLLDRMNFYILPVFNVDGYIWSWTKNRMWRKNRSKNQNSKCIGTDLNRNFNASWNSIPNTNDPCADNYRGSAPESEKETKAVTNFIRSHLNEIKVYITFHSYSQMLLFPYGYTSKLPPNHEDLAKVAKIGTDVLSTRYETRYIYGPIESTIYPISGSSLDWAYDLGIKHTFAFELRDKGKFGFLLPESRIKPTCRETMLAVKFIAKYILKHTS

[2] = Compound was tested for inhibitory activity against Carboxypeptidase A

Row | Ki [1] | Ki [2] [µM] | SMILES
1 | Not Active | – | O=C(O)[C@H](CS)Cc1ccccc1
2 | – | 11 | O=C(O)C(CS)Cc1ccccc1 (racemic)
